Where two headings read alike, the source gives them in different places.
Key:
[1] = test system: S. epidermidis strain 1457; experiment: MBIC/MIC secondary assay; assay type: cell-based, Staphylococcus epidermidis; details: for MIC: Staphylococcus epidermidis
Procedure: (§1) Assays for detecting and measuring bacterial biofilm formation are known in the art. An example of a biofilm formation assay useful in detecting and characterizing biofilm inhibitor compounds is described in Example 1, infra. Briefly, bacterial cells are inoculated into growth medium in individual wells of a 96-well assay plate in the presence or absence of a compound (known biofilm inhibitor or test compound). After incubation for a specified time, growth medium and non-biofilm bacterial cells are removed from each of the wells. The bacterial cells in any biofilms that are adhered to the surface of a well are fixed by addition of ethanol. The ethanol is removed, and the fixed biofilm bacteria cells are stained with crystal violet (CV). The intensity of CV staining is directly correlated with bacterial biofilm formation and is measured in the wells by reading the optical density at 600 nm (OD600). The difference in biofilm formation between untreated control and treated cultures provides an indication of relative biofilm inhibition activity (anti-biofilm activity). Use of different concentrations of an inhibitor in multiple and otherwise duplicate cultures permits determination of a compound's Minimal Biofilm Inhibitory Concentration (MBIC), which is defined herein as the lowest concentration of a compound that inhibits biofilm formation by at least 80% (i.e., ≧80%) compared to untreated control cultures.
(§2) A higher throughput was achieved by formatting the assay for use in flat-bottomed 96-well assay plates (Costar 3590 assay plates, Corning Life Sciences, Lowell, Mass.). The biofilm cultures grew on the bottoms of each well in a surface attached mode. In each assay plate, columns 1 and 12 contained untreated cultures, which served as negative controls (0% biofilm inhibition). Each of the assay wells in columns 2-11 contained a unique small molecule from the Microbiotix Screening Library (MSL) at a final concentration of 100 μM. Assay plates were inoculated with 200 μl/well of a culture of Staphylococcus pidermidis 18972 in 0.5×Tryptic Soy Broth (TSB; Becton Dickinson, Franklin Lakes, N.J.) in which the concentration of glucose was adjusted to 0.25% (w/v). The bacterial inocula were prepared by making a 1:100 dilution of an overnight culture grown in TSB in the media used for the screen. After inoculation, assay plates were sealed with foil tape and incubated at 37° C. for 18-20 hours (h). The optical density at 600 nm (OD600) was measured for each well using a VICTOR2V™ multiplate reader (Perkin Elmer, Waltham, Mass.) in order to quantify overall bacterial growth. The assay plates were processed to remove bacterial growth media and non-biofilm cells from the bottom of each assay well. This was accomplished by using a BioTek ELx405™ plate washer (BioTek Instruments, Inc., Winooski, Vt.). Biofilm bacteria were fixed by addition of 50 μl of 95% ethanol for 30 minutes (min). The ethanol was removed, and the fixed biofilm cultures were stained with 50 μl of 0.06% crystal violet (CV) for 60 min. Excess CV was removed by repeated washes using the BioTek ELx405™ plate washer. The amount of CV bound to each assay well was quantified by measuring OD600 using a VICTOR2V™ plate reader (Perkin Elmer).
(§3) A secondary assay provided a quantitative measure of both anti-biofilm activity and antibacterial activity in terms of the Minimal Biofilm Inhibitory Concentration (MBIC) and the Minimal Inhibitory Concentration (MIC), respectively. The MBIC and MIC are defined as the lowest compound concentrations that inhibit biofilm formation and bacterial growth, respectively, by at least 80% (i.e., ≧80%). The MBIC/MIC assay is formatted in a manner that is similar to the Microbroth dilution assays described by the Clinical and Laboratory Standards Institute (CLSI; formerly NCCLS) in protocol M7-A7. The growth conditions were optimized for biofilm growth in 96-well assay plates such that the resulting CV staining was within the linear range of detection. […]

[2] = test system: S. epidermidis strain 35894; experiment: MBIC/MIC secondary assay; assay type: cell-based, Staphylococcus epidermidis; details: for MIC: Staphylococcus epidermidis
Procedure: as §1, §2, §3

[3] = test system: S. epidermidis strain O47; experiment: MBIC/MIC secondary assay; assay type: cell-based, Staphylococcus epidermidis; details: for MIC: Staphylococcus epidermidis
Procedure: as §1, §2, §3

S. aureus ATCC 35556 [4] = experiment: MBIC/MIC secondary assay; assay type: cell-based, Staphylococcus aureus; details: for MIC: Staphylococcus aureus, ATCC35556
S. aureus strain NRS-123 = experiment: MBIC/MIC secondary assay; assay type: cell-based, Staphylococcus aureus; details: for MIC: Staphylococcus aureus, NRS123
Procedure: as §1, §2, §3

[5] = test system: methicillin-susceptible S. aureus (MSSA); experiment: MBIC/MIC secondary assay; assay type: cell-based, Staphylococcus aureus; details: for MIC: Staphylococcus aureus
Procedure: as §1, §2, §3

S. aureus ATCC 35556 [6] = experiment: Inhibition of biofilm growth at various stages of biofilm development (time of addition); assay type: cell-based, Staphylococcus aureus; details: 22 hours total incubation, CV staining
Procedure: Compound 4 was added to bacterial cultures at a concentration of 4XMBIC (12 μM) at various times (0, 1, 2, 4, 6, 8, 10, 12, and 21 hours) over a 22 hour incubation period. Biofilm growth was also followed in parallel cultures in the absence of Compound 4 (untreated controls). Biofilm growth was quantified in samples by staining with crystal violet and measuring OD600. […] See, Example 5 for details.
In this experiment, wells of a 96-well assay plate containing growth medium (0.5×TSB, 0.25% (w/v) glucose) were inoculated with S. aureus ATCC 35556 and incubated at 37° C. At selected times (0, 1, 2, 4, 6, 8, 10, 12, 21 hours) during the incubation period, Compound 4 was added to individual wells at a concentration of 4×MBIC. Biofilms were washed and stained with crystal violet (CV) to measure biofilm growth after the entire assay plate (all cultures) had been incubated for a total of 22 hours. Biofilm growth in the absence of Compound 4 was followed in parallel cultures (untreated control cultures). Samples were taken from untreated cultures at the same times as Compound 4 was added to the inhibition cultures to quantify the level of biofilm growth by the CV staining method. […]

S. aureus ATCC 35556 [7] = experiment: Planktonic growth curve assay; assay type: cell-based, Staphylococcus aureus; details: aerobic planktonic cultures; concentrations up to 8×MBIC; data not shown
Procedure: However, the specificity of these compounds for inhibiting biofilm growth was verified using an alternative growth curve assay. Planktonic cultures of S. aureus ATCC 35556 were grown aerobically in the presence of various concentrations of Compound 4 (MBIC=3.125 μM). Bacterial cell growth was monitored over time by measuring OD600.

[8] = S. aureus strain 35556, Table 5

Row | Structure (SMILES) | MBIC ([1]; S. epidermidis strain 1457) | MIC [1]; 1457 | MBIC ([2]; S. epidermidis strain 35894) | MIC [2]; 35894 | MBIC ([3]; S. epidermidis strain O47) | MIC ([3]; O47) | MBIC (S. aureus ATCC 35556 [4]; [8]) | MIC (S. aureus ATCC 35556 [4]) | MBIC (S. aureus strain NRS-123; S. aureus strain NRS-123) | MIC (S. aureus strain NRS-123) | MBIC ([5]; S. aureus strain MSSA) | MIC ([5]; MSSA) | further results
1 | CCOc1cc(/C=C2\SC(=S)N(c3ccc(F)nc3)C2=O)ccc1O [Compound 40, 3-(6-fluoropyridin-3-yl)-5-(3-ethoxy-4-hydroxybenzylidene)-2-thioxothiazolidin-4-one] | 25 µM | ≥ 100 µM | 6.3 µM | ≥ 100 µM | 6.3 µM | ≥ 100 µM | 6.3 µM | ≥ 100 µM | 50 µM | ≥ 100 µM | 6.3 µM | ≥ 100 µM | 
2 | CCOc1cc(/C=C2\SC(=S)N(c3cccc(C#N)c3)C2=O)ccc1O [Compound 34, 3-(3-cyanophenyl)-5-(3-ethoxy-4-hydroxybenzylidene)-2-thioxothiazolidin-4-one] | ≧100 μM | ≥ 100 µM | 12.5 µM | ≥ 100 µM | 1.6 µM | ≥ 100 µM | 1.6 µM | ≥ 100 µM | 25 µM | ≥ 100 µM | 12.5 µM | ≥ 100 µM | 
3 | CCOc1cc(/C=C2\SC(=S)N(c3cccc(F)c3)C2=O)ccc1O [Compound 8, 3-(3-fluorophenyl)-5-(3-ethoxy-4-hydroxybenzylidene)-2-thioxothiazolidin-4-one] | 50 µM | ≥ 100 µM | 25 µM | ≥ 100 µM | 25 µM | ≥ 100 µM | 6.3 µM | ≥ 100 µM | 25 µM | ≥ 100 µM | 25 µM | ≥ 100 µM | 
4 | CCOc1cc(/C=C2\SC(=S)N(c3ccc(F)cc3)C2=O)ccc1O [Compound 4, 3-(4-fluorophenyl)-5-(3-ethoxy-4-hydroxybenzylidene)-2-thioxothiazolidin-4-one] | 50 µM | ≥ 100 µM | 25 µM | ≥ 100 µM | 12.5 µM | ≥ 100 µM | 3.1 µM | ≥ 100 µM | 25 µM | ≥ 100 µM | 12.5 µM | ≥ 100 µM | MBIC (S. aureus ATCC 35556 [4]; S. aureus ATCC 35556, stated in text of Examples 5 and 6): 3.125 µM; inhibition of biofilm formation, early stages (S. aureus ATCC 35556 [6]; Compound added at 4×MBIC at early stages (up to 2 h)): inhibited; inhibition of biofilm formation, maturing biofilms (S. aureus ATCC 35556 [6]; Compound added at 4×MBIC to maturing biofilms (8-16 h)): resistant; effect on planktonic bacterial cell growth (OD600 over time) (S. aureus ATCC 35556 [7]): did not affect
5 | C=CCOc1cc(/C=C2\SC(=S)N(c3ccc(F)cc3)C2=O)ccc1O [Compound 29, 3-(4-fluorophenyl)-5-(3-allyloxy-4-hydroxybenzylidene)-2-thioxothiazolidin-4-one] | 25 µM |  | 25 µM |  | 12.5 µM |  | 3.1 µM |  | 25 µM |  | 12.5 µM |  | MIC ([1]; S. epidermidis strain 1457, read-out: MIC): ≥ 100 µM; MIC ([2]; S. epidermidis strain 35894, read-out: MIC): ≥ 100 µM; MIC ([3]; S. epidermidis strain O47, read-out: MIC): ≥ 100 µM; MIC (S. aureus ATCC 35556 [4]; S. aureus strain 35556, Table 5, read-out: MIC): ≥ 100 µM; MIC (S. aureus strain NRS-123; S. aureus strain NRS-123, read-out: MIC): ≥ 100 µM; MIC ([5]; S. aureus strain MSSA, read-out: MIC): ≥ 100 µM
6 | CCOc1cc(/C=C2\SC(=S)N(c3cccnc3)C2=O)ccc1O [Compound 36, 3-(pyridin-3-yl)-5-(3-ethoxy-4-hydroxybenzylidene)-2-thioxothiazolidin-4-one] | 12.5 µM | ≥ 100 µM | 12.5 µM | ≥ 100 µM | 50 µM | ≥ 100 µM | 12.5 µM | ≥ 100 µM | 12.5 µM | ≥ 100 µM | 12.5 µM | ≥ 100 µM | 
